Data as given in publication PMC4792576, “Formononetin, a novel FGFR2 inhibitor, potently inhibits angiogenesis and tumor growth in preclinical models” (Oncotarget, 2015).

Experiments:
FGFR2 = molecular target: T1, FGFR2 (Homo sapiens, UniProt P21802); test: in vitro FGFR2 kinase assay (CycLex kit / Z'-lyte FRET), dose response; radiometric panel […] at […]; assay type: biochemical
T1 construct: kinase domains of FGFR2

FGFR1 = FGFR1 (Homo sapiens, UniProt P11362); test: radiometric kinase panel (Millipore), single concentration […]; assay type: biochemical; conditions: read-out: Inhibition rate at 1 μM (%)
FGFR1, sequence (P11362 22-822): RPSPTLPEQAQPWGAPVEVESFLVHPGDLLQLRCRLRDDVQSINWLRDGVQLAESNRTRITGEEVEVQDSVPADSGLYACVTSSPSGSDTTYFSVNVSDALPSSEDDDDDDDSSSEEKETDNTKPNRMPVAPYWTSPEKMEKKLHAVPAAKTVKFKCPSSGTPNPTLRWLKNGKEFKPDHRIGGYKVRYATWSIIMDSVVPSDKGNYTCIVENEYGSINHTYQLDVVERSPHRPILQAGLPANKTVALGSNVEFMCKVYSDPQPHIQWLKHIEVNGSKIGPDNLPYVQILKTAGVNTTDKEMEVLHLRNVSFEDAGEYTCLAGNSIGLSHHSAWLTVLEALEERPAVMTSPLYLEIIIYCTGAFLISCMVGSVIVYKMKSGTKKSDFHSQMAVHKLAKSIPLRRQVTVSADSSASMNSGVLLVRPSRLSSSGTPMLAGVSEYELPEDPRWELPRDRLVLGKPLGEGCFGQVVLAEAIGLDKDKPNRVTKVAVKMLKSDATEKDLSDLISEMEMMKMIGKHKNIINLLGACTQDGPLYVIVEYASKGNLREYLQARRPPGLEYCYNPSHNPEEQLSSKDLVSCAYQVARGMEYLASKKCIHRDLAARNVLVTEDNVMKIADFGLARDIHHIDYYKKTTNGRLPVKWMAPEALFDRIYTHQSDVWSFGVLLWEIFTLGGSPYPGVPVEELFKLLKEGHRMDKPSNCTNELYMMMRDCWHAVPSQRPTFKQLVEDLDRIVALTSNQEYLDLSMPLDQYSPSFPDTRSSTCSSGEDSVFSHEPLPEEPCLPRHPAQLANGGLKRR

T1 sequence (P21802 458-768 limits assumed): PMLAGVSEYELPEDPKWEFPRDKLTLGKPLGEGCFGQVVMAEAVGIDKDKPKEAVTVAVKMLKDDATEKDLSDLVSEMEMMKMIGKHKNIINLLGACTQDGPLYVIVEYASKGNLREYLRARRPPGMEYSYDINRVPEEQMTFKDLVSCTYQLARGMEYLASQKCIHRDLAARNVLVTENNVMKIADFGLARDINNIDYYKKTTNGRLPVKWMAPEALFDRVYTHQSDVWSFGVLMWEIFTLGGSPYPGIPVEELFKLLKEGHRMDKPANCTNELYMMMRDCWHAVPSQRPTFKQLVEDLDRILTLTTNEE

## COc1ccc(-c2coc3cc(O)ccc3c2=O)cc1 [formononetin]
FGFR2
  IC50: ~4.31 µM
FGFR1
  inhibition at 1 µM: 57 ± 4%
